From US20250171438A1 (Agios Pharmaceuticals, Inc., priority 2022, published 2025)

Target: T1, human PAH with the R408W mutation (Homo sapiens, UniProt P00439, R408W)
T1 construct: expressed in transfected cells
T1 sequence (P00439 1-452 R408W): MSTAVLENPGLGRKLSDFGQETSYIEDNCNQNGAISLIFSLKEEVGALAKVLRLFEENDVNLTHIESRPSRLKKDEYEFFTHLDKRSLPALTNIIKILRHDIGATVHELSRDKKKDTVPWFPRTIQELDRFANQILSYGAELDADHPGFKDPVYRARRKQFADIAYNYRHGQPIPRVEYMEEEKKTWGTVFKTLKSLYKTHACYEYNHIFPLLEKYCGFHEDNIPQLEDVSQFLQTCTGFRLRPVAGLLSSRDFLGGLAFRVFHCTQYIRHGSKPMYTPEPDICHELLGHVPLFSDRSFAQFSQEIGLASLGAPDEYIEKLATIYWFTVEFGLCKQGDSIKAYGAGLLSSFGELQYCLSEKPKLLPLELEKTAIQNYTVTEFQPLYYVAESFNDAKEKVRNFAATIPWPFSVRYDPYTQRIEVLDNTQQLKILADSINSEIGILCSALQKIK
Assay: Cell Based Phenylalanine Flux Assay
Set-up: scale not given here
Settings: A375 cells expressing human R408W PAH; 24 hrs compound incubation; 13C-Tyrosine by LC-MS; average where tested multiple times; read-out: AC50

First: Cn1cc(-c2nnc(C(=O)N3CCc4[nH]cnc4[C@@H]3c3nc4ccccc4s3)o2)c(C(F)(F)F)n1 [Example 1884, (R)-(4-(benzo[d]thiazol-2-yl)-6,7-dihydro-1H-imidazo[4,5-c]pyridin-5(4H)-yl)(5-(1-methyl-3-(trifluoromethyl)-1H-pyrazol-4-yl)-1,3,4-oxadiazol-2-yl)methanone]
Second: O=C(c1nnc(-c2c[nH]nc2C(F)(F)F)o1)N1CCc2[nH]cnc2[C@H]1c1nc2ccccc2s1 [Example 1965]
The AC50 of the first is higher: 1000 to 5000 nM for the first, 500 to 1000 nM for the second.

First: O=C(c1nncs1)N1CCc2[nH]cnc2[C@@H]1c1nc2ccc(Br)cc2[nH]1 [Example 978, (R)-(4-(6-bromo-1H-benzo[d]imidazol-2-yl)-6,7-dihydro-1H-imidazo[4,5-c]pyridin-5(4H)-yl)(1,3,4-thiadiazol-2-yl)methanone]
Second: O=C(c1cnn2ccc(Br)cc12)N1CCc2[nH]cnc2[C@H]1c1nc2ccccc2[nH]1 [Example 925, (S)-(4-(1H-benzo[d]imidazol-2-yl)-6,7-dihydro-3H-imidazo[4,5-c]pyridin-5(4H)-yl)(5-bromopyrazolo[1,5-a]pyridin-3-yl)methanone]
The AC50 of the first is higher: greater than 5000 nM for the first, 1000 to 5000 nM for the second.

Compared with `O=C(c1ocnc1C(F)F)N1CCc2[nH]cnc2[C@H]1c1nc2c(F)cccc2s1` [Example 1615], `O=C(c1ncco1)N1CCc2[nH]cnc2[C@@H]1c1nc2c(F)cccc2s1` [Example 1226, (R)-(4-(4-fluorobenzo[d]thiazol-2-yl)-6,7-dihydro-1H-imidazo[4,5-c]pyridin-5(4H)-yl)(oxazol-2-yl)methanone] is higher in AC50: less than 500 nM for the first, greater than 5000 nM for the second.

First: O=C(c1ccnn1C(F)(F)F)N1CCc2[nH]cnc2[C@H]1c1nc2ccccc2s1 [Example 2097]
Second: O=C(c1cnc(C(F)(F)F)s1)N1CCc2[nH]cnc2[C@H]1c1nc2ccccc2s1 [Example 1181]
The AC50 of the first is lower: less than 500 nM for the first, 500 to 1000 nM for the second.

First: O=C(C1CC1)N1CCc2[nH]cnc2[C@H]1c1nc2ccc(Cl)cc2[nH]1 [Example 960, (S)-(4-(6-chloro-1H-benzo[d]imidazol-2-yl)-6,7-dihydro-1H-imidazo[4,5-c]pyridin-5(4H)-yl)(cyclopropyl)methanone]
Second: O=C(CC1CC1)N1CCc2[nH]cnc2[C@H]1c1nc2ccc(F)cc2s1 [Example 1117, (S)-2-cyclopropyl-1-(4-(6-fluorobenzo[d]thiazol-2-yl)-6,7-dihydro-1H-imidazo[4,5-c]pyridin-5(4H)-yl)ethanone]
The AC50 of the first is higher: 1000 to 5000 nM for the first, less than 500 nM for the second.

`COCCc1nc(C)c(C(=O)N2CCc3[nH]cnc3[C@H]2c2nc3ccccc3s2)o1` [Example 1729, (S)-(4-(benzo[d]thiazol-2-yl)-1,4,6,7-tetrahydro-5H-imidazo[4,5-c]pyridin-5-yl)(2-(2-methoxyethyl)-4-methyloxazol-5-yl)methanone] and `CN(C)CCc1nc(C(F)(F)F)c(C(=O)N2CCCc3[nH]cnc3[C@H]2c2nc3ccccc3s2)o1` (single isomer, unassigned) [Example 2125] fall in the same range of AC50: 500 to 1000 nM for the first, 500 to 1000 nM for the second.

Compared with `Cn1nc(C(F)F)nc1C(=O)N1CCc2[nH]cnc2[C@@H]1c1nc2ccccc2s1` [Example 2172, (R)-(4-(benzo[d]thiazol-2-yl)-6,7-dihydro-1H-imidazo[4,5-c]pyridin-5(4H)-yl)(3-(difluoromethyl)-1-methyl-1H-1,2,4-triazol-5-yl)methanone], `O=C(c1oc(N2CCC(F)CC2)nc1C(F)F)N1CCc2[nH]cnc2[C@@H]1c1nc2ccccc2s1` [Example 1708, (R)-(4-(benzo[d]thiazol-2-yl)-6,7-dihydro-1H-imidazo[4,5-c]pyridin-5(4H)-yl)(4-(difluoromethyl)-2-(4-fluoropiperidin-1-yl)oxazol-5-yl)methanone] is lower in AC50: greater than 5000 nM for the first, less than 500 nM for the second.

Going from `O=C(c1oc(-c2ccccn2)nc1C1CC1)N1CCc2[nH]cnc2[C@@H]1c1nc2ccccc2s1` [Example 1516, (R)-(4-(benzo[d]thiazol-2-yl)-6,7-dihydro-1H-imidazo[4,5-c]pyridin-5(4H)-yl)(4-cyclopropyl-2-(pyridin-2-yl)oxazol-5-yl)methanone] to `O=C(c1cnc(-c2ncccc2F)s1)N1CCc2[nH]cnc2[C@H]1c1nc2ccccc2s1` [Example 1373], the AC50 falls from greater than 5000 nM to less than 500 nM.

First: O=C(c1cnn2cc(F)ccc12)N1CCc2[nH]cnc2[C@@H]1c1nc2c(F)cccc2s1 [Example 1216, (R)-(4-(4-fluorobenzo[d]thiazol-2-yl)-6,7-dihydro-1H-imidazo[4,5-c]pyridin-5(4H)-yl)(6-fluoropyrazolo[1,5-a]pyridin-3-yl)methanone]
Second: O=C(c1cnn(C2CC2)c1Cl)N1CCc2[nH]cnc2[C@H]1c1nc2c(F)cccc2s1 [Example 1969]
The AC50 of the first is higher: 1000 to 5000 nM for the first, 500 to 1000 nM for the second.

First: O=C(c1cnn(-c2ccc(F)cc2)c1)N1CCc2[nH]cnc2[C@H]1c1nc2ccccc2s1 [Example 1411]
Second: O=C(c1ncc(-c2ccccc2)s1)N1CCc2[nH]cnc2[C@@H]1c1nc2ccccc2s1 [Example 1190, (R)-(4-(benzo[d]thiazol-2-yl)-6,7-dihydro-1H-imidazo[4,5-c]pyridin-5(4H)-yl)(5-phenylthiazol-2-yl)methanone]
The AC50 of the first is lower: less than 500 nM for the first, greater than 5000 nM for the second.

First: Fc1ccc(-c2nnc(N3CCc4[nH]cnc4[C@H]3c3nc4ccccc4s3)o2)cc1 [Example 1491]
Second: O=C(C1CN(c2ccc(F)cn2)C1)N1CCc2[nH]cnc2[C@@H]1c1nc2ccccc2s1 [Example 1838, (R)-(4-(benzo[d]thiazol-2-yl)-6,7-dihydro-1H-imidazo[4,5-c]pyridin-5(4H)-yl)(1-(5-fluoropyridin-2-yl)azetidin-3-yl)methanone]
The AC50 of the first is lower: less than 500 nM for the first, greater than 5000 nM for the second.

First: O=C(c1cnc(-c2c(F)cccc2F)s1)N1CCc2[nH]cnc2[C@H]1c1nc2ccccc2s1 [Example 1509]
Second: [2H][C@]1(c2nc3ccccc3s2)c2nc[nH]c2CCN1C(=O)c1cnc(-c2cnn(C)c2)s1 [Example 2158, [(4R)-4-(1,3-benzothiazol-2-yl)-4-deuterio-6,7-dihydro-1H-imidazo[4,5-c]pyridin-5-yl]-[2-(1-methylpyrazol-4-yl)thiazol-5-yl]methanone]
The AC50 of the first is lower: less than 500 nM for the first, greater than 5000 nM for the second.

First: O=C(c1oc(NC2CC2)nc1C(F)(F)F)N1CCc2[nH]cnc2[C@H]1c1nc2c(F)cccc2s1 [Example 1595]
Second: Cc1nc(C(C)(C)C)oc1C(=O)N1CCc2[nH]cnc2[C@@H]1c1nc2c(F)cccc2s1 [Example 1434, (R)-(2-(tert-butyl)-4-methyloxazol-5-yl)(4-(4-fluorobenzo[d]thiazol-2-yl)-6,7-dihydro-1H-imidazo[4,5-c]pyridin-5(4H)-yl)methanone]
The AC50 of the first is lower: less than 500 nM for the first, 1000 to 5000 nM for the second.

First: O=C(c1oc(N2CCOCC2)nc1C(F)F)N1CCc2[nH]cnc2[C@H]1c1nc2c(F)cccc2s1 [Example 2025, (S)-(4-(difluoromethyl)-2-morpholinooxazol-5-yl)(4-(4-fluorobenzo[d]thiazol-2-yl)-6,7-dihydro-1H-imidazo[4,5-c]pyridin-5(4H)-yl)methanone]
Second: O=C(c1nnc(NC2CC2)o1)N1CCc2[nH]cnc2[C@@H]1c1nc2ccccc2s1 [Example 1594, (R)-(4-(benzo[d]thiazol-2-yl)-6,7-dihydro-1H-imidazo[4,5-c]pyridin-5(4H)-yl)(5-(cyclopropylamino)-1,3,4-oxadiazol-2-yl)methanone]
The AC50 of the first is lower: less than 500 nM for the first, 1000 to 5000 nM for the second.

For `COCc1ccc2c(C(=O)N3CCc4[nH]cnc4[C@@H]3c3nc4ccccc4s3)cnn2c1` [Example 1310, (R)-(4-(benzo[d]thiazol-2-yl)-6,7-dihydro-1H-imidazo[4,5-c]pyridin-5(4H)-yl)(6-(methoxymethyl)pyrazolo[1,5-a]pyridin-3-yl)methanone], the AC50 was greater than 5000 nM.

Same assay, conditions: A375 cells expressing human R408W PAH; 24 hrs with compound; 13C-Tyrosine by LC-MS; average where tested multiple times

With `COCCc1ncc(C(=O)N2CC(C)c3[nH]cnc3C2c2nc3ccccc3s2)o1` [(4R,7S) diastereomer of 2-[5-[2-(2-methoxyethyl)-1,3-oxazole] the AC50 was “E, E”.

Same assay, conditions: A375 cells expressing human R408W PAH; 24 hrs with compound; 13C-Tyrosine by LC-MS; average where tested multiple times; read-out: AC50

First: Cc1nnc(CC(=O)N2CCc3[nH]cnc3[C@H]2c2nc3ccccc3[nH]2)s1 [(S)-1-(4-(1H-benzo[d]imidazol-2-yl)-1,4,6,7-tetrahydro-5H-imidazo[4,5-c]pyridin-5-yl)-2-(5-methyl-1,3,4-thiadiazol-2-yl)ethan-1-one]
Second: O=C(c1cnsc1)N1CCc2[nH]cnc2[C@H]1c1nc2ccccc2[nH]1 [(S)-(4-(1H-benzo[d]imidazol-2-yl)-1,4,6,7-tetrahydro-5H-imidazo[4,5-c]pyridin-5-yl)(isothiazol-4-yl)methanone]
The AC50 of the first is higher: greater than 5000 nM for the first, 1000 to 5000 nM for the second.

First: Cn1nc(C2CC2)nc1C(=O)N1CCc2[nH]cnc2C1c1nc2ccccc2s1 (stereo not drawn)
Second: Cc1ncc(C(=O)N2CCc3[nH]cnc3C2c2nc3ccccc3s2)o1 (stereo not drawn)
The AC50 of the first is lower: 1000 to 5000 nM for the first, greater than 5000 nM for the second.

First: Cc1nc(-c2ccccn2)sc1C(=O)N1CCc2[nH]cnc2C1c1nc2ccccc2s1 (stereo not drawn)
Second: O=C(C1CN(c2ccccn2)C1)N1CCc2[nH]cnc2C1c1nc2ccccc2s1 (stereo not drawn)
The AC50 of the first is higher: greater than 5000 nM for the first, 1000 to 5000 nM for the second.

First: Cn1nc(C(C)(C)O)cc1C(=O)N1CCc2[nH]cnc2C1c1nc2c(F)cccc2s1 (stereo not drawn)
Second: Cc1nnc(CC(=O)N2CCc3[nH]cnc3C2c2nc3c(F)cccc3s2)s1 (stereo not drawn)
The AC50 of the first is higher: greater than 5000 nM for the first, 1000 to 5000 nM for the second.

First: O=C(c1ncn2ccccc12)N1CCc2[nH]cnc2C1c1nc2ccc(Br)cc2[nH]1 (stereo not drawn)
Second: O=C(c1cnn2c(Br)cccc12)N1CCc2[nH]cnc2C1c1nc2ccc(Br)cc2[nH]1 (stereo not drawn)
The AC50 of the first is lower: 1000 to 5000 nM for the first, greater than 5000 nM for the second.

Compared with `CC1CN(C(=O)c2cnn3cc(CN(C)C)ccc23)C(c2nc3ccccc3s2)c2nc[nH]c21` (stereo not drawn), `O=C(c1ccn[nH]1)N1CCc2[nH]cnc2C1c1nc2ccccc2s1` (stereo not drawn) is lower in AC50: greater than 5000 nM for the first, 1000 to 5000 nM for the second.
